In one series the target is Cytochrome P450 2D6 (Homo sapiens, UniProt P10635). Put plainly: Inhibition of CYP2D6 (unknown origin). In kind it is ADME.
The test system of another series is L929. The series is described as follows: Cytotoxicity against mouse L929 cells. In kind it is cell-based.
For another series, the target named is Cytochrome P450 3A4 (Homo sapiens, UniProt P08684). The series is described as follows: Inhibition of CYP3A4 (unknown origin). In kind it is ADME.
The next series relates to Vero. Put plainly: Cytotoxicity against African green monkey Vero cells. In kind it is cell-based. The following applies: Chlorocebus sabaeus.
In the next series the target is T1, Cytochrome P450 2A6 (Homo sapiens, UniProt P11509).
T1 sequence (P11509 whole entry): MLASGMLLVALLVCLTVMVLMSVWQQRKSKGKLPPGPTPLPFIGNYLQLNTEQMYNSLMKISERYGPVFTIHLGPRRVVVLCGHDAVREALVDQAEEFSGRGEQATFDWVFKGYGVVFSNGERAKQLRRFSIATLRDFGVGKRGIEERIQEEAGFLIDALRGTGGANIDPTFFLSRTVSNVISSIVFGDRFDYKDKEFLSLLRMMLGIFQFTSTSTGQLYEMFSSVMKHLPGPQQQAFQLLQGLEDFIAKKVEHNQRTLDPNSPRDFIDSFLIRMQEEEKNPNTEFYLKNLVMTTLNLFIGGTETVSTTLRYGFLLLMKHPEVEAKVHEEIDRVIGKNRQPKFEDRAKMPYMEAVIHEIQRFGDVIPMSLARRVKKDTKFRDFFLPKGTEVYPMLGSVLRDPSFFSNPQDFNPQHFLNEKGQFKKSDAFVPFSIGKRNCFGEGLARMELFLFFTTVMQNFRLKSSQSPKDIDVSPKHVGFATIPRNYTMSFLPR
The series is described as follows: Inhibition of CYP2A6 (unknown origin). In kind it is ADME.

Another series has as its target hERG (KCNH2) (Homo sapiens, UniProt Q12809). The series is described as follows: Inhibition of human ERG at 10 uM.
The subject of the next series is CHO-K1. The series is described as follows: Cytotoxicity against CHOK1 cells. In kind it is cell-based. Conditions: Cricetulus griseus.
The target in a further series is Cytochrome P450 2C19 (Homo sapiens, UniProt P33261). Put plainly: Inhibition of CYP2C19 (unknown origin). In kind it is ADME.
Series [1] addresses T2, Glucose-dependent insulinotropic receptor (Homo sapiens) (UniProt Q8TDV5).
T2 sequence (whole entry): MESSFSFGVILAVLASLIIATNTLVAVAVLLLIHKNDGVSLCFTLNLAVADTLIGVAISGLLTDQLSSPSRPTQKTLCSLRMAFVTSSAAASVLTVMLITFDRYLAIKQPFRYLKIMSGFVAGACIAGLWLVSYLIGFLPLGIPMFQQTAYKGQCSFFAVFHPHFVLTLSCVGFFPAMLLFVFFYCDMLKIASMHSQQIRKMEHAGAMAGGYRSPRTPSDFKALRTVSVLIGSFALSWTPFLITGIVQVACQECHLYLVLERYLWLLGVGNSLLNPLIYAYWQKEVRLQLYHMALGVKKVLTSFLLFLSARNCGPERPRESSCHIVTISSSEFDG
The series is described as follows: Activation of human GPR119 expressed in CHOK1 cells co-expressing CRE-luciferase at 1 uM after 6 hrs by luciferase reporter gene assay relative to GSK1292263. In kind it is functional, cell-based. On the technique in general: A reporter such as luciferase makes a cellular process visible.

Series [2] has as its target T3, Glucose-dependent insulinotropic receptor (Homo sapiens, UniProt Q8TDV5).
T3 sequence (Q8TDV5 whole entry): T2 sequence (whole entry)
Put plainly: Agonist activity at human GPR119 expressed in CHOK1 cells co-expressing CRE-luciferase after 6 hrs by luciferase reporter gene assay. In kind it is functional, cell-based.

The subject of the next series is Mus musculus. The series is described as follows: Antidiabetic activity in C57BL/6 mouse assessed as decrease in plasma glucose AUC at 30 mg/kg, po pretreated for 30 mins followed by glucose challenge measured up to 120 mins by oGTT assay. In kind it is functional, organism-based.
A further series concerns NIH3T3. Put plainly: Cytotoxicity against mouse NIH/3T3 cells. In kind it is cell-based.
A short description of series [3]: Metabolic stability in human liver microsomes assessed as compound remaining after 30 mins. In kind it is ADME, microsome. Conditions: read-out: Stability. A general note: Microsomes from liver hold many membrane-bound enzymes, among them those of drug oxidation.
A further series addresses T4, Cytochrome P450 1A2 (Homo sapiens, UniProt P05177).
T4 sequence (P05177 whole entry): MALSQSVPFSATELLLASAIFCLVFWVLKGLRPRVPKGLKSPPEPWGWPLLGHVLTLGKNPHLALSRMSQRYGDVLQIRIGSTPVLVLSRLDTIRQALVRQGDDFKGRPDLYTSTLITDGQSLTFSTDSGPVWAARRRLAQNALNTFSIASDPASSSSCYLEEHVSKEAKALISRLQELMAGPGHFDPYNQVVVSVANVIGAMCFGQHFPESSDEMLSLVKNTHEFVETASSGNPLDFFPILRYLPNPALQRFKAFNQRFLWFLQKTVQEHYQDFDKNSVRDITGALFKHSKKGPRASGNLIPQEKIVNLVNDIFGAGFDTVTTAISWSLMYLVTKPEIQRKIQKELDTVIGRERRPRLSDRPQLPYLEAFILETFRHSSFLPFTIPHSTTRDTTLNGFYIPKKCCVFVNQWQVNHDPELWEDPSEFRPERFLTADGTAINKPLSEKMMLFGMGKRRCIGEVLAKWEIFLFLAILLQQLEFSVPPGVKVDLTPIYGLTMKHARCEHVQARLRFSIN
The series is described as follows: Inhibition of CYP1A2 (unknown origin). In kind it is ADME.

A short description of series [4]: Metabolic stability in rat liver microsomes assessed as compound remaining after 30 mins. Conditions: read-out: Stability. In kind it is ADME, microsome.
Another series has as its system HFL1. The series is described as follows: Cytotoxicity against HFL1 cells. In kind it is cell-based. The following applies: Homo sapiens.

Consider one molecule from ChEMBL document CHEMBL4177668, “Synthesis and biological evaluation of thiazole derivatives as GPR119 agonists” (Bioorg Med Chem Lett, 2017).

For orientation: IC50 means the concentration that gives 50% inhibition. What is called inhibition is the share of the control response that was lost under treatment. For orientation: EC50 means the concentration that produces a half-maximal response.

Active and inactive are the calls of the source. The calls are words filed in the database; no cut-off is given here.

Sequence of Cytochrome P450 2D6 (P10635 whole entry): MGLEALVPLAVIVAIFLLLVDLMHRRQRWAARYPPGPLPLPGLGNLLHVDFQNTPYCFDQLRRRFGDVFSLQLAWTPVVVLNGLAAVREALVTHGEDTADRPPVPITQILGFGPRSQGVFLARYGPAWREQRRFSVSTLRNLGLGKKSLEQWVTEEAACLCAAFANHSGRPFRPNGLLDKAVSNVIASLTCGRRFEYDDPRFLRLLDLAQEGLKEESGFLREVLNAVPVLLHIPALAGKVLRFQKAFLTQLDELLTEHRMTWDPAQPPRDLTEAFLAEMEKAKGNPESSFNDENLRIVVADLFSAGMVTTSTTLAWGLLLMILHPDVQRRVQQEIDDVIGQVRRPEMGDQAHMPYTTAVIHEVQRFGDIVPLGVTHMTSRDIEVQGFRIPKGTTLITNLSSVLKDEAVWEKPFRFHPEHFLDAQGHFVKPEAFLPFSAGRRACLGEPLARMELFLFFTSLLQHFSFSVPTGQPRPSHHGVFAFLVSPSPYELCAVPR
Sequence of Cytochrome P450 2C19 (P33261 whole entry): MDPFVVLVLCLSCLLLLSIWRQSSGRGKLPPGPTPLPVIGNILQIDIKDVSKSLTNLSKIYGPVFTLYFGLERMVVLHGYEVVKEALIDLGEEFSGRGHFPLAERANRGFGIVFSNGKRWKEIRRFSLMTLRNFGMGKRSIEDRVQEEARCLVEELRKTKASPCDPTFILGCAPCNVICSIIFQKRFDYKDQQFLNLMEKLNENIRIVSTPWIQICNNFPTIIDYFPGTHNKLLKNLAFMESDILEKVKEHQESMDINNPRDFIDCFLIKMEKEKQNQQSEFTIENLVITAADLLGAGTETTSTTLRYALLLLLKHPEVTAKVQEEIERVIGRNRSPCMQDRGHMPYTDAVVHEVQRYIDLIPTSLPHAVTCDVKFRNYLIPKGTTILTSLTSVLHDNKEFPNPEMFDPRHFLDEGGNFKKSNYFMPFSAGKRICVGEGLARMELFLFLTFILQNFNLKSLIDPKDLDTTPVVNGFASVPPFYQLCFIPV
Sequence of Cytochrome P450 3A4 (P08684 whole entry): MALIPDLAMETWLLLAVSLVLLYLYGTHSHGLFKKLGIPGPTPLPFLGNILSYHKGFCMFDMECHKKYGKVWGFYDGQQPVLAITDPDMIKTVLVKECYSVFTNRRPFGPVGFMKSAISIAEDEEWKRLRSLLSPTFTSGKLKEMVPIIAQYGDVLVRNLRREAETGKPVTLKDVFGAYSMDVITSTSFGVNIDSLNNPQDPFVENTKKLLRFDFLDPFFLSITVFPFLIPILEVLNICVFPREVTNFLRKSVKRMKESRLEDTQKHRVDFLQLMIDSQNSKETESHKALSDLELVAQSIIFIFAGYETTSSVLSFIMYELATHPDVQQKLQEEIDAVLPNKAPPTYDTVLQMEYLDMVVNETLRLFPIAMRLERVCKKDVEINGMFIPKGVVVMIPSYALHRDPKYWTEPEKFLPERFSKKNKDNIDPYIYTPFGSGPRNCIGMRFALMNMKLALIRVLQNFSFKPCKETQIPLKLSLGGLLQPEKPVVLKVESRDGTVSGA
Sequence of hERG (KCNH2) (Q12809 whole entry): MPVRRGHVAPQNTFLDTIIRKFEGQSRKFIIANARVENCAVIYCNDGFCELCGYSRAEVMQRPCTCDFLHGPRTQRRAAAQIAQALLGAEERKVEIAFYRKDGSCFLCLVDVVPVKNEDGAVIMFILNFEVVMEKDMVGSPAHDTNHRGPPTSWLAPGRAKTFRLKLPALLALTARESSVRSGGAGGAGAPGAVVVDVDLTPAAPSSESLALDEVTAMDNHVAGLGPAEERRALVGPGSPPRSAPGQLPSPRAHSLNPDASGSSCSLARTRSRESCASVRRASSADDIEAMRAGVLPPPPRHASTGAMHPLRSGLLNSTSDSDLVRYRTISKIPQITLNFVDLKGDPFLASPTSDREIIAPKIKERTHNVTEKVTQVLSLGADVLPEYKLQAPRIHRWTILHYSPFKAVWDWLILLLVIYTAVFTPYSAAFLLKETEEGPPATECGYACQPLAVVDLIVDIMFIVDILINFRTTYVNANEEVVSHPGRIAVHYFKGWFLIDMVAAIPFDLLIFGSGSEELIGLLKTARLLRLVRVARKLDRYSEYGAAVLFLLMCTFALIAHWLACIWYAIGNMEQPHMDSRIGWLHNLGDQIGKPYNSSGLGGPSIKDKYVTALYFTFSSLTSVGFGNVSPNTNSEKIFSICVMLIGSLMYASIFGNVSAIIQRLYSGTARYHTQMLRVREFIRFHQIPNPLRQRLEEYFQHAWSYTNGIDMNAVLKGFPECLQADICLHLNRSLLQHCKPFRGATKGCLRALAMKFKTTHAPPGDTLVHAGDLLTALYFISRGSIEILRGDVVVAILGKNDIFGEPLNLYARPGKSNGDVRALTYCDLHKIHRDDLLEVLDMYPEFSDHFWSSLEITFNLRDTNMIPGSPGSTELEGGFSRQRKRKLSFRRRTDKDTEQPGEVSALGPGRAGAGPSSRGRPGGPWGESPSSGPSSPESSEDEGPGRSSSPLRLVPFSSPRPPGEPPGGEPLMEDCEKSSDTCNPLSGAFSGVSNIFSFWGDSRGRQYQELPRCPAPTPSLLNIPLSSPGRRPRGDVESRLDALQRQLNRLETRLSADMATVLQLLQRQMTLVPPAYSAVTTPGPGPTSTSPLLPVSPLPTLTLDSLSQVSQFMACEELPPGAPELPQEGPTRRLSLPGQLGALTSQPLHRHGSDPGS

With `CCc1cnc(N2CCC(c3nc(COc4ccc(-n5cnnn5)cc4)cs3)CC2)nc1` [MBX-2982], the INH on Cytochrome P450 2D6 is greater than 100 µM; at Cytochrome P450 3A4 it was 2.24 µM; on Cytochrome P450 2A6 it was 3.53 µM; at Cytochrome P450 2C19, greater than 100 µM; at Cytochrome P450 1A2, greater than 100 µM. Further, the half-maximal inhibitory concentration (IC50) with L929, in the series with Vero, with CHO-K1, in the series on NIH3T3 and in the series with HFL1 was greater than 100 µM in each case. The molecule further had an inhibition at 10 µM at hERG (KCNH2) of 10.5%. For the same molecule, the Activity in series [1] stood at 91%. In series [2], this molecule showed an EC50 of 0.087 µM. In the series with Mus musculus, the result was Active. Also, the results for the remaining at 0.5 h in [3] and in [4] were 7.8% and 20.6%, respectively.
